Assay results from PMC9788418, “Design, Synthesis and Biological Evaluation of Syn and Anti-like Double Warhead Quinolinones Bearing Dihydroxy Naphthalene Moiety as Epidermal Growth Factor Receptor Inhibitors with Potential Apoptotic Antiproliferative Action” (Molecules, 2022).
“And” between values parts separate entries of the source, which are not always exact repeats. Equal entries are not always repeated.

Legend:
[1] = Cell viability assay (MTT) on normal cell line; format: cell-based, human; settings: human, MCF-10A mammary gland epithelial cells, four days
Method: A cell viability test was performed using MCF-10A (human mammary gland epithelial) cell line to investigate the effect of 4a–e and 7a–e on normal cell lines. In this investigation, a concentration of 50 µM of the studied compound is employed for four days, after which cell viability is assessed.
(§1) 4.2. Biological evaluation
4.2.1. Cytotoxic activity using MTT Assay and evaluation of IC50
MTT assay was carried out to study the effect of compounds on mammary epithelial cells (MCF-10A). The medium in which cells were propagated contained Dulbecco's modified Eagle's medium (DMEM)/ Ham's F-12 medium (1:1) supplemented with epidermal growth factor (20 ng/mL), hydrocortisone (500 ng/mL), insulin (10 μg/mL), 2 mM glutamine and 10% foetal calf serum. After every 2-3 days, the cells were passaged using trypsin ethylenediamine tetra acetic acid (EDTA). The cells were seeded at a density of 10^4 cells mL-1 in flat-bottomed culture plates containing 96 wells each. After 24 h, medium was removed from the plates and the compounds in (in 0.1% DMSO) were added (in 200 μL medium to yield a final concentration of 0.1% v/v) to the wells of plates. A single compound was designated with four wells followed by incubation of plates for 96h at 37°C. After incubation, medium was removed completely from the plates followed by addition of MTT (0.4 mg/mL in medium) to each well and subsequent incubation of plates for 3h. MTT (along with the medium) was removed and DMSO (150μL) was added to each well of the culture plates, followed by vortexing and subsequent measurement of absorbance (at 540 nm) using microplate reader. […]

[2] = test system: Panc-1 (pancreas cancer cell line); test: Antiproliferative assay; format: cell-based, human; settings: Homo sapiens, PANC-1; read-out: Antiproliferative Activity IC50 ± SEM, Panc-1
Method: as §1
4.2.1. Cytotoxic activity using MTT Assay and evaluation of IC50 […]
cells were seeded at a density of 10^4 cells mL-1 in flat-bottomed culture plates containing 96 wells each. After 24 h, medium was removed from the plates and the compounds in (in 0.1% DMSO) were added (in 200 μL medium to yield a final concentration of 0.1% v/v) to the wells of plates. A single […]
incubation, medium was removed completely from the plates followed by addition of MTT (0.4 mg/mL in medium) to each well and subsequent incubation of plates for 3h. MTT (along with the medium) was removed and DMSO (150μL) was added to each well of the culture plates, followed by vortexing and subsequent measurement of absorbance (at 540 nm) using microplate reader. The data […]
4.2.1.2. Assay for antiproliferative effect
To explore the antiproliferative potential of compounds MTT assay was performed according to previously reported procedure using different cell lines to explore the antiproliferative potential of compounds propidium iodide fluorescence assay was performed using different cell lines. To calculate the total nuclear DNA, a fluorescent dye (propidium iodide, PI) is used which can attach to the DNA, thus offering a quick and precise technique. PI cannot pass through the cell membrane and its signal intensity can be considered as directly proportional to quantity of cellular DNA. Cells whose cell membranes are damaged or have changed permeability are counted as dead ones. The assay was performed by seeding the cells of different cell lines at a density of 3000-7500 cells/well (in 200µl […]
atmospheric conditions. The medium was removed; the compounds were added to the plates at 10 µM concentrations (in 0.1% DMSO) in triplicates, followed by incubation for 48 h. DMSO (0.1%) was used as control. After incubation, medium was removed followed by the addition of PI (25 µl, 50µg/mL in water/medium) to each well of the plates. At -80 °C, the plates were allowed to freeze for 24 h, followed by thawing at 25 °C. A fluorometer (Polar-Star BMG Tech) was used to record the readings at excitation and emission wavelengths of 530 and 620 nm for each well. The percentage cytotoxicity of compounds was calculated using the following formula:
Where ATC= Absorbance of treated cells and AC= Absorbance of control. […]
positive control in the assay.

caspase-8 = test: Caspase-8 activation assay; format: cell-based, human; settings: for Caspase-8 Fold Change: vs control cells
EGFR = EGFR (Homo sapiens, UniProt P00533); test: EGFR inhibitory assay (EGFR-TK, DELFIA/time-resolved fluorometry)
Method: EGFR-TK assay was performed to evaluate the inhibitory potency of novel compounds against
EGFR. Baculoviral expression vectors including pBlueBacHis2B and pFASTBacHTc were used
5ʹ upstream to the EGFR sequence comprised a sequence that encoded (His)6. Sf-9 cells were infected for 72h for protein expression. The pellets of Sf-9 cells were solubilized in a buffer containing sodium vanadate (100 µM), aprotinin (10 µg/mL), triton (1%), HEPES buffer (50mM), ammonium molybdate (10 µM), benzamidine HCl (16 µg/mL), NaCl (10 mM), leupeptin (10 µg/mL) and pepstatin (10 µg/mL) at 0°C for 20 min at pH 7.4, followed by centrifugation for 20 min.
To eliminate the non-specifically bound material, a Ni-NTA super flow packed column was used to pass through and wash the crude extract supernatant first with 10 mM and then with 100 mM imidazole. Histidine-linked proteins were first eluted with 250 and then with 500 mM imidazole after (1 picture or pasted object on this page, not shown here)
dialysis against NaCl (50 mM), HEPES (20 mM), glycerol (10%) and 1 µg/mL each of aprotinin, leupeptin and pepstatin for 120 min. The purification was performed either at 4 °C or on ice. To
record autophosphorylation level, EGFR kinase assay was carried out based on DELFIA/Time-
Resolved Fluorometry. The compounds were first dissolved in DMSO absolute, after dilution to
Each compound (10 µL) was incubated
with recombinant enzyme (10 µL, 5 ng for EGFR, 1:80 dilution in 100 mM HEPES) for 10 min at
25 °C, after the addition of 5X buffer (10 µL, containing 2 mM MnCl2, 100 µM Na3VO4, 20 mM HEPES and 1 mM DTT) and ATP-MgCl2 (20 µL, containing 0.1 mM ATP and 50 mM MgCl2) and
incubation for 1h. The negative and positive controls were included in each plate by the incubation
of enzyme either with or without ATP-MgCl2. The liquid was removed after incubation and the plates
were washed thrice using wash buffer. Europium-tagged antiphosphotyrosine antibody (75 µL, 400
ng) was added to each well followed by incubation of 1h and then washing of the plates using buffer.
The enhancement solution was added to each well and the signal was recorded at excitation and
The autophosphorylation percentage inhibition by compounds was calculated using the following equation:

Bax = Bax activation assay; format: cell-based, human; settings: for Bax Conc: A-549; for Bax Fold Change: A-549, vs control untreated cells
Method: 8, and lysed with Cell Extraction Buffer. This lysate was diluted in Standard Diluent Buffer over the range of the assay and measured for human active caspase-8 content. (cells are Plated in a density of 1.2 – 1.8 × 10,000 cells/well in a volume of 100µl complete growth medium + 100 ul of the tested compound per well in a 96-well plate for 24 hours before the enzyme assay for […].). […]
4.2.4. Bax activation assay
Bring all reagents, except the human Bax-α Standard, to room temperature for at least 30 minutes prior to opening. The human Bax-α Standard solution should not be left at room temperature for more than 10 minutes. All standards, controls and samples should be run in duplicate. Refer to the Assay Layout Sheet to determine the number of wells to be used and put any remaining wells with the desiccant back into the pouch and seal the ziploc. Store unused wells at 4 °C. Pipet 100 μL of Assay Buffer into the S0 (0 pg/mL standard) wells. Pipet 100 μL of Standards #1 through #6 into the appropriate wells. Pipet 100 μL of the Samples into the appropriate wells. Tap the plate gently to mix the contents. Seal the plate and incubate at room temperature on a plate shaker for 1 hour at ~500 rpm. Empty the contents of the wells and wash by adding 400 μL of wash solution to every well.
Repeat the wash 4 more times for a total of 5 washes. After the final wash, empty or aspirate the wells and firmly tap the plate on a lint free paper towel to remove any remaining wash buffer. Pipet 100 μL of yellow Antibody into each well, except the Blank. Seal the plate and incubate at room temperature on a plate shaker for 1 hour at ~500 […]
wells and firmly tap the plate on a lint free paper towel to remove any remaining wash buffer. Add […]
100 μL of blue Conjugate to each well, except the Blank. Seal the plate and incubate at room temperature on a plate shaker for 30 minutes at ~500 rpm. Empty the contents of the wells and wash by adding 400 μL of wash solution to every well. Repeat the wash 4 more times for a total of 5 washes. After the final wash, empty or aspirate the wells and firmly tap the plate on a lint free paper towel to remove any remaining wash buffer. Pipet 100 μL of Substrate Solution into each well.
Incubate for 30 minutes at room temperature on a plate shaker at ~500 rpm. Pipet 100 μL Stop Solution to each well. Blank the plate reader against the Blank wells, read the optical density at 450 nm. Calculate the average net Optical Density (OD) bound for each standard and sample by subtracting the average Blank OD from the average OD for each standard and sample. Using linear graph paper, plot the Average Net OD for each standard versus Bax concentration in each standard.
Approximate a straight line through the points. The concentration of Bax in the unknowns can be determined by interpolation. […]

Chain of EGFR (P00533 669-1210): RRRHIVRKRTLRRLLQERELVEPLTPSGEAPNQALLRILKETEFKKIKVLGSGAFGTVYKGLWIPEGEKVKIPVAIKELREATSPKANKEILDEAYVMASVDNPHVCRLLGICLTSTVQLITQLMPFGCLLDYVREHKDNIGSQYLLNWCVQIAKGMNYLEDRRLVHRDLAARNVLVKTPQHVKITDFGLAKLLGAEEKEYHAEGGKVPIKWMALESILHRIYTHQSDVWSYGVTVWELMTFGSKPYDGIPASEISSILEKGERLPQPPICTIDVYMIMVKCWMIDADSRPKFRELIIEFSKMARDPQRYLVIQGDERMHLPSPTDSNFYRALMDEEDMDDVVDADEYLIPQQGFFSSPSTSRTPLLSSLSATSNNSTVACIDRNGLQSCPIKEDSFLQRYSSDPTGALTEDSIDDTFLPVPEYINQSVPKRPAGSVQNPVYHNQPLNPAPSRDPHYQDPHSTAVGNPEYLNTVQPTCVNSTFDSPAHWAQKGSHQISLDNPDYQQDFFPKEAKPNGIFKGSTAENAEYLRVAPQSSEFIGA

IC50 [2] | IC50 (EGFR) | fold less effective than erlotinib (EGFR IC50) (EGFR; relative to erlotinib) | SMILES | viability at 96 h, 50 µM [1] | Caspase-8 Conc (caspase-8) | Caspase-8 Fold Change (caspase-8) | Bax Conc (Bax) | Bax Fold Change (Bax)
36 ± 3 nM | 64 ± 6 nM | – | O=c1cc(-n2cc(COc3cccc4cccc(OCc5cn(-c6cc(=O)[nH]c7ccccc67)nn5)c34)nn2)c2ccccc2[nH]1 [Compound 4a, 4,4′-(((naphthalene-1,8-diylbis(oxy))bis(methylene))bis(1H-1,2,3-triazole-4,1-diyl))-bis-(quinolin-2(1H)-one)] | 91% | 1.20 ng/mL | 6 | 298 pg/mL and 298.60 pg/mL | 36
46 ± 4 nM | 93 ± 9 nM | roughly 1.3 fold | Cc1ccc2[nH]c(=O)cc(-n3cc(COc4cccc5cccc(OCc6cn(-c7cc(=O)[nH]c8ccc(C)cc78)nn6)c45)nn3)c2c1 [Compound 4b, 4,4′-(((naphthalene-1,8-diylbis(oxy))bis(methylene))bis(1H-1,2,3-triazole-4,1-diyl))-bis(6-methylquinolin-2(1H)-one)] | 89% | 0.80 ng/mL | 4 | 284 pg/mL and 284.50 pg/mL | 34
